Assay results from patent US20240279249A1, “Compound, Coating Composition Comprising Same, Organic Light-Emitting Device Using Same, and Manufacturing Method Therefor” (LG Chem, Ltd., priority 2021, published 2024).
Where two headings read alike, the source gives them in different places.

Assays:
[1] = Film retention rate / solvent resistance: UV-vis absorption of heat-treated film after immersion in cyclohexanone; assay type: physicochemical; details: film from 4 wt % solution in cyclohexanone, 100 nm on quartz, heat-treated 190° C. to 200° C. in nitrogen 30 minutes, immersed in cyclohexanone 10 minutes; higher absorbance = more film retained
Experimental: Thereafter, after the substrate was heat-treated at a temperature of 190° C. to 200° C. in a nitrogen atmosphere for 30 minutes, the UV-vis absorption spectrum was measured. Subsequently, the same sample was immersed in cyclohexanone for 10 minutes and remove, the solvent was dried from the sample, and then the UV-vis absorption spectrum was also measured.
In the process of manufacturing the device, the film is retained while being cured during the heat treatment. The higher absorbance means that a relatively more residue remains on the film.

[2] = Solubility at 5 wt % relative to each solvent
Description: In a solution process organic light emitting device, when an ink solvent is selected for the process, the ink solvent needs to dissolve both a host and a dopant.

[3] = 5 wt % relative to solvent, Acetone
[4] = 5 wt % relative to solvent, Dichloromethane
[5] = 5 wt % relative to solvent, Toluene

Compound | Absorbance @ 350 nm [1] | also measured
C=Cc1ccc([B-](c2c(F)c(F)c(C(F)(F)F)c(F)c2F)(c2c(F)c(F)c(C(F)(F)F)c(F)c2F)c2c(F)c(F)c(C(F)(F)F)c(F)c2F)cc1.Cc1ccc([I+]c2ccc(C(C)C)cc2)cc1 [Comparative Compound 1, (4-isopropylphenyl) (p-tolyl) iodonium tris(2,3,5,6-tetrafluoro-4-(trifluoromethyl)phenyl) (4-vinylphenyl)borate, reference compound] | 0.483 | 
C=Cc1c(F)c(F)c([B-](c2c(F)c(F)c(C(F)(F)F)c(F)c2F)(c2c(F)c(F)c(C(F)(F)F)c(F)c2F)c2c(F)c(F)c(C(F)(F)F)c(F)c2F)c(F)c1F.Cc1ccc([I+]c2ccc(C(C)C)cc2)cc1 [Comparative Compound 2, (4-isopropylphenyl) (p-tolyl)iodonium tris(2,3,5,6-tetrafluoro-4-(trifluoromethyl)phenyl) (2,3,5,6-tetrafluoro-4-vinylphenyl) borate, reference compound] | 0.526 | 
Cc1ccc([I+]c2ccc(C(C)C)cc2)cc1.Fc1c(F)c([B-](c2c(F)c(F)c(C(F)(F)F)c(F)c2F)(c2c(F)c(F)c(C(F)(F)F)c(F)c2F)c2c(F)c(F)c(C(F)(F)F)c(F)c2F)c(F)c(F)c1-c1ccc2c(c1)CC2 [Comparative Compound 3, (4-isopropylphenyl) (p-tolyl)iodonium(4-(bicyclo[4.2.0]octa-1,3,5-trien-3-yl)-2,3,5,6-tetrfluorophenyl)tris(2,3,5,6-tetrafluoro-4-(trifluoromethyl)phenyl)borate, reference compound] | 0.392 | 
C=Cc1ccc(-c2c(F)c(F)c([B-](c3c(F)c(F)c(-c4ccc(C=C)cc4)c(F)c3F)(c3c(F)c(F)c(-c4ccc(C=C)cc4)c(F)c3F)c3c(F)c(F)c(-c4ccc(C=C)cc4)c(F)c3F)c(F)c2F)cc1.Cc1ccc([I+]c2ccc(C(C)C)cc2)cc1 [Comparative Compound 4, (4-isopropylphenyl) (p-tolyl)iodonium tetrakis(2,3,5,6-tetrafluoro-4′-vinyl-[1,1′-biphenyl]-4-yl) borate, reference compound] | 0.467 | Solubility in Acetone [2, 3]: Dissolved; Solubility in Dichloromethane [2, 4]: Dissolved; Solubility in Toluene [2, 5]: Insoluble
C=Cc1ccc(-c2cc(-c3ccc(C=C)cc3)cc(-c3c(F)c(F)c(-c4c(F)c(F)c([B-](c5c(F)c(F)c(C(F)(F)F)c(F)c5F)(c5c(F)c(F)c(C(F)(F)F)c(F)c5F)c5c(F)c(F)c(C(F)(F)F)c(F)c5F)c(F)c4F)c(F)c3F)c2)cc1.Cc1ccc([I+]c2ccc(C(C)C)cc2)cc1 [Compound 3, (4-isopropylphenyl) (p-tolyl)iodonium (2″,2′″,3″,13′″,5″,5′″,6″,6′″-octafluoro-4-vinyl-5′-(4-vinylphenyl)-[1,1′:3′,1″:4″,1′″-quarterphenyl]-4′″-yl)tris(2,3,5,6-tetrafluoro-4-(trifluoromethyl)phenyl)borate] | 0.813 | Solubility in Acetone [2]: Dissolved; Solubility in Dichloromethane [2]: Dissolved; Solubility in Toluene [2]: Dissolved
C=Cc1cc(C=C)cc(-c2c(F)c(F)c(-c3c(F)c(F)c([B-](c4c(F)c(F)c(C(F)(F)F)c(F)c4F)(c4c(F)c(F)c(C(F)(F)F)c(F)c4F)c4c(F)c(F)c(C(F)(F)F)c(F)c4F)c(F)c3F)c(F)c2F)c1 [Compound 5] | 0.801 | Solubility in Acetone [2, 3]: Dissolved; Solubility in Dichloromethane [2, 4]: Dissolved; Solubility in Toluene [2, 5]: Dissolved
C=Cc1ccc(-c2c(F)c(F)c(-c3c(F)c(F)c([B-](c4c(F)c(F)c(C(F)(F)F)c(F)c4F)(c4c(F)c(F)c(C(F)(F)F)c(F)c4F)c4c(F)c(F)c(C(F)(F)F)c(F)c4F)c(F)c3F)c(F)c2F)c2ccccc12 [Compound 7] | 0.603 | 
Fc1c(F)c(-c2c(F)c(F)c([B-](c3c(F)c(F)c(C(F)(F)F)c(F)c3F)(c3c(F)c(F)c(C(F)(F)F)c(F)c3F)c3c(F)c(F)c(C(F)(F)F)c(F)c3F)c(F)c2F)c(F)c(F)c1-c1ccc2c(c1)CC2 [Compound 8] | 0.546 | 
(4-isopropylphenyl) (p-tolyl)iodonium (2,3,5,6-tetrafluoro-4′-vinyl-[1,1′-biphenyl]-4-yl)tris(2,3,5,6-tetrafluoro-4-(trifluoromethyl)phenyl)borate [Compound 1] | 0.802 | 
